Earlier results on one compound are cited in EP1197217A1, “Use of sodium nitroprussiate in obstetrics and gynaecology” (Ibsa Institut Biochimique S.A., priority 2000, dated 2002).

Several values for one entry are separate records, joined by “and”; a condition that tells them apart may be missing. Equal values may be shown once.

For this data set, the system named is cervix. The settings on record: in vivo.

Take `O=[N+]([O-])O[C@@H]1CO[C@H]2[C@@H]1OC[C@@H]2O` [isosorbide mononitrate]: the “cumulative median force necessary to dilate the cervix to 8 mm” value was 40 newtons and 36 newtons.
